Several values for one entry are separate records, joined by “and”; a condition that tells them apart may be missing. Identical values can stand only once.
Columns and labels:
[1] = Aqueous solubility; type: physicochemical; conditions: McIlvaine buffer pH 6.8, 2.5% DMSO, 24 h shaking
Method: Assay for Determination of Aqueous Solubility […] After 24 h of shaking, the solutions or suspensions are filtered and analyzed by LC-UV. The amount dissolved in buffer is compared to the amount dissolved in the acetonitrile/water (1/1) solution.

[2] = Metabolic stability with human hepatocytes; type: in vitro ADME; conditions: human hepatocyte suspension, 1 μM, scaled by well stirred model
[3] = Metabolic stability with human liver microsomes; conditions: pooled human liver microsomes 1 mg/ml, test compound 1 μM, 37° C., NADPH
[4] = system: Caco-2 cells; test: Drug transport across human Caco-2 cells; type: in vitro ADME; conditions: for Efflux ratio: PEBA/PEAB; for PEAB: apical-to-basal; for PEAB / PEBA: Caco-2 monolayers, pH 7.2, 37° C.; for PEBA: basal-to-apical

SMILES | Aqueous solubility [1] | CL (predicted human hepatic in vivo blood clearance) [2] | t1/2 INVITRO [3] | further results
N#Cc1ccc([C@@H]2C3=C(CCC3=O)N(c3cccc(C(F)(F)F)c3)C(=O)N2C(=O)N[C@H]2CCC[C@@H]2O)cc1 [Example 45.4] | 0.028 mg/mL |  | >2.17 h | Efflux ratio [4]: 2.0; PEAB [4]: 381 nm/s; PEBA [4]: 772 nm/s
N#Cc1ccc(C2C3=C(CCC3=O)N(c3cccc(C(F)(F)F)c3)C(=O)N2C(=O)NC2CCOCC2)cc1 (centres unmarked) [Example 41.16] |  |  | >2.17 h | Efflux ratio [4]: 1.0
N#Cc1ccc(C2C3=C(CCC3=O)N(c3cccc(C(F)(F)F)c3)C(=O)N2C(=O)N[C@@H]2CCC[C@H]2O)cc1 (some centres unmarked) [Example 42.3] | 0.02 mg/mL |  | >2.17 h | Efflux ratio [4]: 2.4; PEAB [4]: 362 nm/s; PEBA [4]: 860 nm/s
C[C@H](CO)NC(=O)N1C(=O)N(c2cccc(C(F)(F)F)c2)C2=C(C(=O)CC2)C1c1ccc(C#N)cc1 (some centres unmarked) [Example 41.4] |  | 0.3 L/h/kg | >2.17 h | Efflux ratio [4]: 8.7
CN(C)C(=O)CN1C(=O)N(c2cccc(C(F)(F)F)c2)C2=C(C(=O)CC2)C1c1ccc(C#N)cc1 (centres unmarked) [Example 6.2] |  | 0.36 L/h/kg |  | 
N#Cc1ccc(C2C3=C(CCC3=O)N(c3cccc(C(F)F)c3)C(=O)N2C(=O)NCCO)cc1 (centres unmarked) [Example 52.3] | 0.091 mg/mL |  | >2.17 h | 
CS(=O)(=O)N1C(=O)N(c2cccc(C(F)(F)F)c2)C2=C(C(=O)CC2)[C@H]1c1ccc(C#N)cc1 [Example 9A, (R)-4-(3-(Methylsulfonyl)-2,5-dioxo-1-(3-(trifluoromethyl)phenyl)-2,3,4,5,6,7-hexahydro-1H-cyclopenta[d]pyrimidin-4-yl)benzonitrile] |  | 0 L/h/kg |  | 
C[C@H](O)CNC(=O)N1C(=O)N(c2cccc(C(F)(F)F)c2)C2=C(C(=O)CC2)C1c1ccc(C#N)cc1 (some centres unmarked) [Example 41.1] |  | 0.12 L/h/kg | >2.17 h | Efflux ratio [4]: 8.9 and 4.8
CC(C)(O)CCNC(=O)N1C(=O)N(c2cccc(C(F)(F)F)c2)C2=C(C(=O)CC2)C1c1ccc(C#N)cc1 (centres unmarked) [Example 41.17] |  | 0.18 L/h/kg | >2.17 h | Efflux ratio [4]: 3.5
N#Cc1ccc([C@@H]2C3=C(CCC3=O)N(c3cccc(C(F)(F)F)c3)C(=O)N2C(=O)N[C@H]2COC[C@@H]2O)cc1 [Example 45.5] | 0.056 mg/mL | 0 L/h/kg | >2.17 h | 
N#Cc1ccc([C@@H]2C3=C(CCC3=O)N(c3cccc(C(F)F)c3)C(=O)N2C(=O)NCCCO)cc1 [Example 52A, (R)-4-(4-Cyanophenyl)-1-(3-(difluoromethyl)phenyl)-N-(3-hydroxypropyl)-2,5-dioxo-4,5,6,7-tetrahydro-1H-cyclopenta[d]pyrimidine-3(2H)-carboxamide] |  | 0.48 L/h/kg |  | 
N#Cc1ccc(C2C3=C(CCC3=O)N(c3cccc(C(F)(F)F)c3)C(=O)N2C(=O)NCCCO)cc1 (centres unmarked) [Example 7.3] |  | 0.42 L/h/kg | >2.17 h | Efflux ratio [4]: 7.1
CC(C)(O)CNC(=O)N1C(=O)N(c2cccc(C(F)(F)F)c2)C2=C(C(=O)CC2)[C@H]1c1ccc(C#N)cc1 [Example 41A, (R)-4-(4-Cyanophenyl)-N-(2-hydroxy-2-methylpropyl)-2,5-dioxo-1-(3-(trifluoro-methyl)phenyl)-4,5,6,7-tetrahydro-1H-cyclopenta[d]pyrimidine-3(2H)-carboxamide] |  | 0 L/h/kg |  | 
N#Cc1ccc(C2C3=C(CCC3=O)N(c3cccc(C(F)(F)F)c3)C(=O)N2C(=O)NC2(CO)CC2)cc1 (centres unmarked) [Example 41.5] |  |  |  | Efflux ratio [4]: 8.7; PEBA [4]: 770 nm/s
N#Cc1ccc(C2C3=C(CCC3=O)N(c3cccc(C(F)(F)F)c3)C(=O)N2C(=O)N[C@H]2COC[C@H]2O)cc1 (some centres unmarked) [Example 42.6] | 0.067 mg/mL | 0.3 L/h/kg |  | 
CS(=O)(=O)c1cc(C#N)ccc1[C@H]1NC(=O)N(c2cccc(C(F)(F)F)c2)C2=C1C(=O)CC2 [example 10A, (S)-4-(2,5-Dioxo-1-(3-(trifluoromethyl)phenyl)-2,3,4,5,6,7-hexahydro-1H-cyclopenta[d]pyrimidin-4-yl)-3-(methylsulfonyl)benzonitrile] |  | 0 L/h/kg |  | AB permeability (comparison in words) ([4]; Caco-2, compared to example 44 disclosed in US 2011/0034433): improved AB permeability

Continued, in another order:

Aqueous solubility [1] | CL (predicted human hepatic in vivo blood clearance) [2] | t1/2 INVITRO [3] | SMILES | further results
0.034 mg/mL |  |  | CS(=O)(=O)c1cc(C#N)ccc1C1C2=C(CCC2=O)N(c2cccc(C(F)F)c2)C(=O)N1C(=O)NC1CC1 (centres unmarked) [Example 53.3] | 
 | 0 L/h/kg |  | CS(=O)(=O)c1cc(C#N)ccc1[C@@H]1C2=C(CCC2=O)N(c2cccc(C(F)(F)F)c2)C(=O)N1CC#N [Example 23, (S)-4-(3-(Cyanomethyl)-2,5-dioxo-1-(3-(trifluoromethyl)phenyl)-2,3,4,5,6,7-hexahydro-1H-cyclopenta[d]pyrimidin-4-yl)-3-(methylsulfonyl)benzonitrile] | 
 | 0.24 L/h/kg | >2.17 h | N#Cc1ccc(C2C3=C(CCC3=O)N(c3cccc(C(F)(F)F)c3)C(=O)N2CC(=O)N2CCC2)cc1 (centres unmarked) [Example 6.3] | 
 | 0.12 L/h/kg |  | CN1C(=O)N(c2cccc(C(F)(F)F)c2)C2=C(C(=O)CC2)[C@H]1c1ccc(C#N)cc1S(C)(=O)=O [Example 25, (S)-4-(3-Methyl-2,5-dioxo-1-(3-(trifluoromethyl)phenyl)-2,3,4,5,6,7-hexahydro-1H-cyclopenta[d]pyrimidin-4-yl)-3-(methylsulfonyl)benzonitrile] | 
0.07 mg/mL |  | >2.17 h | CC(C)(O)CNC(=O)N1C(=O)N(c2cccc(C(F)F)c2)C2=C(C(=O)CC2)C1c1ccc(C#N)cc1 (centres unmarked) [Example 52.5] | Efflux ratio [4]: 14.1; PEAB [4]: 44.5 nm/s; PEBA [4]: 627 nm/s
 |  | >2.17 h | C[S+]([O-])CCNC(=O)N1C(=O)N(c2cccc(C(F)(F)F)c2)C2=C(C(=O)CC2)C1c1ccc(C#N)cc1 (centres unmarked) [Example 7.6] | 
 |  | >2.17 h | CS(=O)(=O)c1cc(C#N)ccc1C1C2=C(CCC2=O)N(c2cccc(C(F)(F)F)c2)C(=O)N1CC(=O)N1CC2CC2C1 (centres unmarked) [Example 22.4] | 
0.019 mg/mL |  | >2.17 h | CS(=O)(=O)c1cc(C#N)ccc1[C@@H]1C2=C(CCC2=O)N(c2cccc(C(F)(F)F)c2)C(=O)N1C(=O)NC1CC1 [Example 47.4] | PEAB [4]: 77.4 nm/s; PEBA [4]: 855 nm/s
 | 0.06 L/h/kg |  | CNC(=O)N1C(=O)N(c2cccc(C(F)(F)F)c2)C2=C(C(=O)CC2)C1c1ccc(C#N)cn1 (centres unmarked) [Example 50.1] | 
 |  | >2.17 h | CCNC(=O)N1C(=O)N(c2ccnc(C(F)(F)F)c2)C2=C(C(=O)CC2)C1c1ccc(C#N)cc1 (racemic) [Example 54.2] | 
0.032 mg/mL | 0 L/h/kg | >2.17 h | CS(=O)(=O)CCNC(=O)N1C(=O)N(c2cccc(C(F)(F)F)c2)C2=C(C(=O)CC2)C1c1ccc(C#N)cc1F (centres unmarked) [Example 49.3] | 
0.016 mg/mL |  | >2.17 h | CC(C)NC(=O)N1C(=O)N(c2cccc(C(F)(F)F)c2)C2=C(C(=O)CC2)[C@H]1c1ccc(C#N)cc1S(C)(=O)=O [Example 47.5] | PEAB [4]: 192 nm/s; PEBA [4]: 867 nm/s
 | 0.24 L/h/kg |  | CCS(=O)(=O)c1cc(C#N)ccc1C1NC(=O)N(c2cccc(C(F)(F)F)c2)C2=C1C(=O)CC2 (centres unmarked) [Example 14, 4-(2,5-Dioxo-1-(3-(trifluoromethyl)phenyl)-2,3,4,5,6,7-hexahydro-1H-cyclopenta[d]pyrimidin-4-yl)-3-(ethylsulfonyl)benzonitrile] | 
 | 0 L/h/kg |  | N#Cc1ccc([C@@H]2C3=C(CCC3=O)N(c3cccc(C(F)(F)F)c3)C(=O)N2C(=O)NCCO)cc1 [Example 7.2A, (R)-4-(4-Cyanophenyl)-N-(2-hydroxyethyl)-2,5-dioxo-1-(3-(trifluoromethyl)phenyl)-4,5,6,7-tetrahydro-1H-cyclopenta[d]pyrimidine-3(2H)-carboxamide] | 
0.041 mg/mL |  | >2.17 h | CNC(=O)N1C(=O)N(c2cccc(C(F)F)c2)C2=C(C(=O)CC2)C1c1ccc(C#N)cc1 (centres unmarked) [Example 52.1] | Efflux ratio [4]: 1.0; PEAB [4]: 571 nm/s; PEBA [4]: 583 nm/s
 |  | 1.67 h | CS(=O)(=O)c1cc(C#N)ccc1C1C2=C(CCC2=O)N(c2cccc(C(F)(F)F)c2)C(=O)N1CCCO (centres unmarked) [Example 24.1] | 
 | 0 L/h/kg |  | CS(=O)(=O)c1cc(C#N)ccc1C1NC(=O)N(c2cccc(C(F)F)c2)C2=C1C(=O)CC2 (centres unmarked) [Example 15.4, 4-(1-(3-(difluoromethyl)phenyl)-2,5-dioxo-2,3,4,5,6,7-hexahydro-1H-cyclopenta[d]pyrimidin-4-yl)-3-(methylsulfonyl)benzonitrile] | 
 | 0.18 L/h/kg |  | CNC(=O)N1C(=O)N(c2cccc(C(F)(F)F)c2)C2=C(C(=O)CC2)[C@H]1c1ccc(C#N)cc1 [Example 7.1A, (R)-4-(4-Cyanophenyl)-N-methyl-2,5-dioxo-1-(3-(trifluoromethyl)phenyl)-4,5,6,7-tetrahydro-1H-cyclopenta[d]pyrimidine-3(2H)-carboxamide] | 

Source: patent US9670166B2, “Substituted bicyclic dihydropyrimidinones and their use as inhibitors of neutrophil elastase activity” (Boehringer Ingelheim International GmbH, priority 2013, dated 2017)
